What was measured:
[1] = target: T1, nitrile hydratase (Pseudomonas chlororaphis, UniProt P27763+P27764); test: Preservation of nitrile hydration activity of enzyme immobilized on DEAE-Cellulofine AM left standing; type: biochemical, Pseudomonas chlororaphis B23 (FERM BP-187); conditions: Table 8
T1 sequence (P27764 1-200): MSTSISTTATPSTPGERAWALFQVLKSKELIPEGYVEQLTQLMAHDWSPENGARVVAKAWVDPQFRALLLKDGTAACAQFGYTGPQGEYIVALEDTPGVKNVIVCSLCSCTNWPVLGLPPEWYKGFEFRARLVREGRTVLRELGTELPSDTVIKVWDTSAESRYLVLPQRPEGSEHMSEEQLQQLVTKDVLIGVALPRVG
T1 sequence (P27763 1-220): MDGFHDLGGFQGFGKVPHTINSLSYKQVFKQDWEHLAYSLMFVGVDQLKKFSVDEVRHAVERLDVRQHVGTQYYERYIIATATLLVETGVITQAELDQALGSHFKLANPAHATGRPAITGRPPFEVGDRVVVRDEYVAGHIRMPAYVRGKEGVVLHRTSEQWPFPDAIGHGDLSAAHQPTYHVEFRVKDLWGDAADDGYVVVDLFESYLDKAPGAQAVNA
Procedure: 25 ml each of a cell extract containing ammonium isobutyrate and a control cell extract containing no ammonium isobutyrate prepared as in Example 95 and comparison Example 11 were mixed with 15 g each of DEAE-Cellulofine AM (supplied by Seikagaku Kogyo Co., Ltd., Japan) equilibrated with M/20 phosphate buffer (pH 7.7). The mixture was stirred at 0° C. for 90 minutes to immobilize the enzymes.
The results are presented in Table 8 in which the protein levels in the immobilized enzymes were determined in accordance with the procedure of Lowry et al.

[2] = target: T1, nitrile hydratase; test: Preservation of nitrile hydration activity of cell extract (crude enzyme solution) left standing; type: biochemical, Pseudomonas chlororaphis B23 (FERM BP-187); conditions: Table 6
Procedure: The resultant cell suspension was pressed in a French press (fabricated by Ohtake Seisakusho, Japan) to crush cells under a pressure of 1,000 to 1,500 kg G and then subjected to centrifugation (12,000 rpm, 30 minutes) to remove uncrushed cells and insolubles such as cell walls, whereby a cell extract, i.e. a crude enzyme solution, was obtained.
For comparison purposes, a similar cell suspension (3.2×10^3 U/ml) which contained no ammonium isobutyrate was prepared and subjected to a French press treatment and centrifugation under similar conditions, whereby a control cell extract was obtained.

[3] = target: T1, nitrile hydratase; test: Preservation of nitrile hydration activity of polyacrylamide gel-immobilized cells left standing; type: cell-based, Pseudomonas chlororaphis B23 (FERM BP-187); conditions: Table 7
Procedure: 40 ml of washed cells (water content 75%) prepared as in Example 1, 4.5 g of acrylamide, 0.5 g of N,N'-methylenebisacrylamide, and 40 ml of M/20 phosphate buffer (containing 10 g/l of ammonium isobutyrate, pH 6.0) were mixed to form a homogeneous suspension. To this suspension were added 5 ml of a 5% aqueous solution of dimethylaminopropionitrile and 10 ml of a 1% aqueous solution of potassium persulfate, and the mixture was maintained at 10° C. for 30 minutes to cause polymerization. A mass of cell-containing gel obtained was crushed into small particles, which were thoroughly washed with M/20 phosphate buffer containing 5 g/l of ammonium isobutyrate, pH 7.0, whereby approximately 90 g of immobilized cells were obtained.
The washed, immobilized cells thus obtained were placed in the same buffer containing 5 g/l of isobutyric acid and left standing at 0° C. for 5 days. […]
The nitrile hydration activity levels of the gel samples were measured as follows before and after the respective immobilized cells were left standing.
1 g of immobilized gel was mixed with 5 g of acrylonitrile and 97 ml of M/20 phosphate buffer (pH 7.7), and the mixture was subjected to reaction at 0° C. for 20 minutes with stirring. The quantities of acrylamide in the respective reaction solutions were determined by gas chromatography.

CC(C)C(=O)O.N [Ammonium Isobutyrate, ammonium isobutyrate]
Activity Before Being Left Standing ([1]; enzyme immobilized on DEAE-Cellulofine AM, control without: 4.6): 19.4 | Activity After Being Left Standing ([1]; immobilized enzyme, 3 days ice-cooled, control without: 1.7): 18.4 | % Residual Activity ([1]; immobilized enzyme, 3 days ice-cooled, control without: 37): 95% | Activity Before Being Left Standing ([2]; cell extract from suspension mixed 1:1 with buffer (pH 6.5) containing 10 g/l ammonium isobutyrate, control without: 2.7 × 10^3): 2.9 × 10^3 U/ml | Activity After Being Left Standing ([2]; cell extract, 3 days ice-cooled, control without: 1.0 × 10^3): 2.8 × 10^3 U/ml | % Residual Activity ([2]; cell extract, 3 days ice-cooled, control without: 38): 94% | Quant. of AA produced (%) after cells were left standing ([3]; immobilized cells left standing at 0° C. for 5 days in buffer with 5 g/l stabilizer, control without: 0.52): 0.93% | Quant. of AA produced (%) before cells were left standing ([3]; immobilized cells, 1 g gel + 5 g acrylonitrile, 0° C., 20 minutes, control without: 0.88): 1.02%

From patent US4900672A, “Method for preservation of nitrile hydration activity” (Nitto Kagaku Kogyo Kabushiki Kaisha, priority 1986, dated 1990)
